Measured values as given in patent US20190381084A1, “COMBINATION THERAPY” (NUCANA BIOMED LIMITED, priority 2015, published 2019).
Read-outs that look alike come from different tables or passages of the source.

How the values were obtained:
OVCAR-3 = assay: Single agent cytotoxicity assay (CellTiter-Glo); assay type: cell-based; conditions: CTG assay, 72 h; for IC50: Homo sapiens
Method: (§1) A2780, SK-OV-3, OVCAR-3, NCI-H460, NCI-H1975, NCI-H2122, 5637 and HT1376 were cultured in RPMI Medium 1640 (Invitrogen-22400105) supplemented with 10% fetal bovine serum (FBS; Invitrogen-10099141). All the cell lines were maintained in a humidified incubator at 37° C. with 5% CO2. Cell culture media and supplements were purchased from Invitrogen, and tissue culture flasks were purchased from Corning, 96-well plates and 384-well plates were purchased from Greiner. CellTiter-Glo Luminescent Cell Viability Assay kits were purchased from Promega (Promega-G7573), cells counter Vi-Cell was purchased from Beckman, detection instrument Envision was purchased from PerkinElmer.
(§2) Paclitaxcel (used as a reference) and cisplatin were purchased from SELLECK, and they were of highest purity available. All compounds attained solubility in DMSO and when diluted into culture media. DMSO, compounds solutions and culture media were warmed to 37° C. for the solution preparation and dilutions.
(§3) Eight cell lines were allowed to adhere to 96-well plates overnight (100 μL/well), for drug treatments with 3.16 fold dilution, 9 dose points, triplicates or vehicle control, compound stock solutions were prepared in DMSO and added to the wells to give the indicated final drug concentrations. Final DMSO concentration was 0.5%. Cellular ATP concentrations were assessed by using the CellTiter-Glo Cell Viability Assay as per the manufacturer's instructions 72 h after drug addition.
(§4) Stage 1: Single Agent IC50 Determination
(§5) In Stage 1 the IC50 (using 5 or more concentrations) of each individual compound cisplatin, carboplatin, gemcitabine and NUC-1031) in the relevant cell lines was determined.

HT1376 = assay: Single agent cytotoxicity assay (CellTiter-Glo); assay type: cell-based; conditions: 72 h; for IC50: Homo sapiens, HT-1376, CTG assay
Method: as §1, §2, §3, §4, §5

NCI-H1975 = assay: Single agent cytotoxicity assay (CellTiter-Glo); assay type: cell-based; conditions: CTG assay, 72 h; for IC50: Homo sapiens
Method: as §1, §2, §3, §4, §5

NCI-H460 = assay: Single agent cytotoxicity assay (CellTiter-Glo); assay type: cell-based; conditions: CTG assay, 72 h; for IC50: Homo sapiens
Method: as §1, §2, §3, §4, §5

SK-OV-3 = assay: Single agent cytotoxicity assay (CellTiter-Glo); assay type: cell-based; conditions: 72 h; for IC50: Homo sapiens, SK-OV-3, SK-OV3, CTG assay
Method: as §1, §2, §3, §4, §5

A2780 = assay: Single agent cytotoxicity assay (CellTiter-Glo); assay type: cell-based; conditions: CTG assay, 72 h; for IC50: Homo sapiens
Method: as §1, §2, §3, §4, §5

5637 = assay: Single agent cytotoxicity assay (CellTiter-Glo); assay type: cell-based; conditions: CTG assay, 72 h
Method: as §1, §2, §3, §4, §5

[1] = ProGem1 phase I study in subjects with advanced solid malignancies; assay type: in vivo, human
Text: ProGem1 was a first-time-in-human (FTIH), phase I, open label, two stage study to investigate the safety, tolerability, clinical efficacy, pharmacokinetics (PK) and pharmacodynamics (PD) of NUC-1031 given in two parallel dosing schedules in subjects with advanced solid malignancies (EudraCT Number: 2011-005232-26). Subjects had the following tumour types at study entry: colorectal cancer (7 subjects), unknown primary (3), ovarian cancer (12), breast cancer (4), pancreatic cancer (9), cholangiocarcinoma (7), endometrial cancer (3), cervical cancer (2), lung cancer (7), mesothelioma (3), oesophageal cancer (3), cancer of the fallopian tube (1), trophoblast (1), renal cancer (1), gastric cancer (1), anal cancer (1), cancer of the thymus (1) and osteosarcoma (1).

C[C@H](NP(=O)(OC[C@H]1O[C@@H](n2ccc(N)nc2=O)C(F)(F)[C@@H]1O)Oc1ccccc1)C(=O)OCc1ccccc1 (stereo partly drawn) [NUC-1031, 2′-Deoxy-2′,2′-difluoro-D-cytidine-5′-O-[phenyl (benzoxy-L-alaninyl)] phosphate]
Max Inhibition_% (OVCAR-3): 11.76%
IC50 (OVCAR-3; read-out: Ab IC50): > 1980 nM
IC50 (OVCAR-3; read-out: relative IC50): 200 nM
Max Inhibition_% (HT1376; CTG assay): −2.54%
IC50 (HT1376; read-out: Ab IC50): > 1980 nM
IC50 (HT1376; read-out: relative IC50): > 1980 nM
Max Inhibition_% (NCI-H1975): 37.91%
IC50 (NCI-H1975; read-out: Ab IC50): > 1980 nM
IC50 (NCI-H1975; read-out: relative IC50): 370 nM
Max Inhibition_% (NCI-H460): 91.98%
IC50 (NCI-H460; read-out: Ab IC50): 40 nM
IC50 (NCI-H460; read-out: relative IC50): 40 nM
IC50 (SK-OV-3; read-out: Ab IC50): 70 nM
IC50 (SK-OV-3; read-out: relative IC50): 60 nM
Max Inhibition_% (SK-OV-3; SK-OV3, CTG assay): 61.59%
Max Inhibition_% (A2780): 79.15%
IC50 (A2780; read-out: Ab IC50): 25 nM
IC50 (A2780; read-out: relative IC50): 16 nM
Max Inhibition_% 5637: 77.88%
IC50 (5637; read-out: Ab IC50): 200 nM
IC50 (5637; read-out: relative IC50): 120 nM
anti-tumour activity ([1]; patients with advanced progressive cancers who exhausted standard options): anti-tumour activity
levels of toxic metabolite dFdU released relative to gemcitabine ([1]; relative to levels normally associated with gemcitabine): less than half
